Read-outs that look alike come from different tables or passages of the source.
Assays:
[1] = system: dormant Mycobacterium bovis BCG; format: cell-based
[2] = system: dormant Mycobacterium tuberculosis (H37RV); experiment: Wayne dormancy model, CFU assay; conditions: for reduction of the dormant bacteria (CFU compared to untreated control): drug added after 14 days, cultures collected after 22 days
[3] = system: dormant M. bovis BCG, expressing the luciferase gene on plasmid pSMT1; format: cell-based, Mycobacterium bovis; conditions: 7 days of anaerobiosis, then 5 days in drug free medium

Compound: COc1nc2ccc(Br)cc2cc1C(c1ccccc1)C(O)(CCN(C)C)c1ccccc1 (stereo not drawn)
- melting point: 84 °C

Compound: COc1nc2ccc(Br)cc2cc1[C@@H](c1ccccc1)[C@@](O)(CCN(C)C)c1cccc2ccccc12 [Compound 12, (αS, βR)-6-bromo-α-[2-(dimethylamino)ethyl]-2-methoxy-α-1-naphthalenyl-β-phenyl-3-quinolineethanol]
- reduction in CFU counts compared with untreated control ([1]; 0.1 μg/ml, day 2 after anaerobiosis): ~0.5 log10
- reduction in CFU counts compared with untreated control ([1]; 0.1 μg/ml, day 5 after anaerobiosis): ~1.1 log10
- reduction in CFU counts compared with untreated control ([1]; 1 μg/ml, day 2 after anaerobiosis): ~2.3 log10
- reduction in CFU counts compared with untreated control ([1]; 1 μg/ml, day 5 after anaerobiosis): ~4.7 log10
- reduction in CFU counts compared with untreated control ([1]; 10 μg/ml, day 2 after anaerobiosis): approximately 4 log10
- reduction in CFU counts compared with untreated control ([1]; 10 μg/ml, day 5 after anaerobiosis): about 6 log10
- reduction of the dormant bacteria (CFU compared to untreated control) ([2]; 1 μg/ml): 1.41 log10
- killing of dormant bacteria as compared to untreated control (Luciferase counts, RLU) ([3]; 0.1 μg/ml): about 0.5 log10
- killing of dormant bacteria as compared to untreated control (Luciferase counts, RLU) ([3]; 1 μg/ml): ~2 log10
- reduction in bacterial survival as compared to untreated control (Luciferase counts, RLU) ([3]; 10 μg/ml): approximately 4 log10

Compound: COc1nc2ccc(Br)cc2cc1C(c1ccc(C)cc1)C(O)(CCN(C)C)c1cccc2ccccc12 (stereo not drawn) [Compound 71]
- reduction of the dormant bacteria (CFU compared to untreated control) ([2]; 1 μg/ml): 1.55 log10
- reduction of the dormant bacteria (CFU compared to untreated control) ([2]; 10 μg/ml): more than 2 log10

Compound: COc1nc2ccc(Br)cc2cc1C(c1ccccc1)C(O)(CCN(C)C)c1ccc2c(c1)OCO2 (stereo not drawn) [Compound 75]
- reduction of the dormant bacteria (CFU compared to untreated control) ([2]; 1 μg/ml): 0.87 log10
- reduction of the dormant bacteria (CFU compared to untreated control) ([2]; 10 μg/ml): 1.14 log10

Compound: COc1nc2ccc(Br)cc2cc1C(c1ccccc1)C(O)(CCn1cncn1)c1cccc2ccccc12 (stereo not drawn) [Compound 172]
- reduction of the dormant bacteria (CFU compared to untreated control) ([2]; 1 μg/ml): 0.29 log10
- reduction of the dormant bacteria (CFU compared to untreated control) ([2]; 10 μg/ml): 0.98 log10

Compound: NNC(=O)c1ccncc1 [Isoniazid, reference compound]
- effect on dormant bacteria, in words ([2]; 10 μg/ml): did not have any effect
- effect on dormant bacteria (Luciferase counts), in words ([3]; 10 μg/ml): no effect

Compound: Cc1ncc([N+](=O)[O-])n1CCO [metronidazole, reference compound]
- effect on dormant bacteria, in words ([2]; 100 μg/ml, added at start): good efficacy
- reduction in bacterial survival as compared to untreated control (Luciferase counts, RLU) ([3]; 10 μg/ml): 2 log10

Reference: patent publication US20060142279A1 (priority 2004, published 2006)
